Columns and labels:
[1] = system: GA-deficient (Line 719, R5) soybeans; assay: Hilum treatment with GA15, GA19, GA24, GA44, hypocotyl length, GA-deficient soybean; assay type: in vivo, Glycine max; settings: 10 μg/seed, 5 DAP
Excerpt: Transgenic seeds are fifth generation (R5) line 719 seeds.

[2] = system: wild-type soybean line A3237; assay: Experiment I greenhouse test, seed imbibition, wild-type soybean; settings: 0.25 mg/ml; seeds imbibed 5 hours
Method: Compounds are first prepared as 25 mg/ml solutions in ethanol as described above, and then diluted into 40 ml of water to prepare the final 0.25 mg/ml treatment solutions. Visual observations on solubilities (milky, clear, etc.) of the treatment solutions are noted. The treatment solutions are divided into two 20 ml portions, each in 50 ml plastic centrifuge tubes. In addition to treating seeds with solutions containing the test compounds, untreated seeds and seeds imbibed in ethanol-water solution (300 μl ethanol in 30 mls of water) are also included in this experiment as controls. […]
(§1) After imbibition, seeds are removed from the test tubes, placed on wax paper to dry, and planted in bread pans containing farm soil amended with fertilizer at 20 seeds/pan. Seeds are covered with 0.5″ of vermiculite. Pans are transferred to the greenhouse, which had day/night temperatures of 86/68° F. (30/20° C.), and subirrigated. Illumination is at a light intensity of 300-400 μmolm^−2s^−1 photosynthetic photon flux; 16 hours light/8 hours dark. Subsequent waterings are also through sub-irrigation until the test is terminated three weeks later. Observations included the number of dwarf, intermediate, and tall plants; plant height; uniformity of rescue; and any visual effects.

[3] = Particulate material present in solutions after mixing; assay type: physicochemical
Method: Each of the compounds noted above is weighed to the nearest 0.1 mg in a pre-tarred 1.5-ml polypropylene vial with a screw-top lid. Absolute ethanol is added to the weighed powder to prepare a 25 mg/ml solution. Solutions are thoroughly mixed using a vortex mixer. A stainless steel spatula is used to crush any particulate material remaining after extensive mixing. Vials are left overnight at room temperature, and then remixed to form the concentrated ethanol stock solutions. The presence of undissolved material is noted throughout this procedure.

[4] = system: constitutively GA-deficient transgenic dwarf soybeans (line 719); assay: Summary of first two greenhouse experiments, rescue of GA-deficient soybeans; assay type: in vivo, Glycine max; design: key: +: transgenic soybeans are rescued; 0: transgenic soybeans are not rescued; settings: 0.25 mg/ml solution (ethanol-water)
Method: Compounds are first prepared as 25 mg/ml solutions in ethanol as described above, and then diluted into 40 ml of water to prepare the final 0.25 mg/ml treatment solutions. Visual observations on solubilities (milky, clear, etc.) of the treatment solutions are noted. The treatment solutions are divided into two 20 ml portions, each in 50 ml plastic centrifuge tubes. In addition to treating seeds with solutions containing the test compounds, untreated seeds and seeds imbibed in ethanol-water solution (300 μl ethanol in 30 mls of water) are also included in this experiment as controls. In the latter case, 20 seeds are imbibed in 30 mls of solution for six hours.
as §1, with “Two soybean varieties are selected for testing: constitutively GA-deficient transgenic dwarf soybean line 719 (plasmid pMON29801, constitutive FMV promoter/asCPScc; which is a mixture of 719−2 and 719+17), and A3237, the wild-type parent material. […] After” for “After”
All compounds are tested at final concentrations of 0.25, 0.025, and 0.0025 mg/ml except for GA9, which is tested at 0.125, 0.0125, and 0.00125 mg/ml. (The compounds are tested in Experiment I at only one concentration, i.e., 0.25 mg/ml). Test tubes contained […] of ethanol solution per tube. Final volumes are made up to 30 ml with deionized water. After shaking, the treatment solutions (15 ml each) are transferred to each of two 50 ml test tubes. Treatments 1 to 27 are performed on wild-type line A3237; treatments 28 to 54 are performed on constitutively GA-deficient transgenic dwarf soybean line 719 (a mixture of 719−2 and 719+17). Twenty seeds are used in each treatment. Dry seed, ethanol/water-imbibed seed (1% ethanol in water, v/v), and water-imbibed seeds are included as controls. Seeds are imbibed for 6 hours in the test solutions, then planted in bread pans containing Metromix 350 (The Scotts Company, Marysville, Ohio), and covered with 0.5″ Metro-mix. Covered pans are transferred to the greenhouse and subirrigated. Illumination is at a light intensity of 300-400 μmolm^−2s^−1 photosynthetic photon flux; 16 hours light/8 hours dark. Subsequent waterings are also through sub-irrigation until the test is terminated three weeks later. Observations included the number of dwarf, intermediate, and tall plants; plant height; uniformity of rescue; and any visual effects. Digital photographs are also taken.

[5] = system: GA-deficient transgenic soybean line 719 (R5); assay: Hilum treatment of soybean seeds, seedling growth and development, GA-deficient soybean; assay type: in vivo, Glycine max; design: key to Emergence timing / Hypocotyl length (6 DAP) / 1st internode length (12 DAP) / 3rd internode length (20 DAP) / 2nd internode length (12 DAP): pos: emergence faster/stem segment longer than controls; 0: emergence timing/stem segment length similar to controls; neg: emergence slower/stem segment shorter than controls
Method: (§2) In the previous experiments, the effect of various GA compounds on transgenic, GA-deficient and wild-type soybean is evaluated by treating seeds with these compounds via imbibition. Several of these compounds are not completely soluble in water, which limited the interpretation of their utility in rescuing GA-deficient dwarf plants. The purpose of this experiment is to reevaluate selected, previously tested compounds, and additional compounds, by introducing them to the seed via the hilum. As shown by the results presented below, direct application of small quantities of GA compounds dissolved in an organic solvent to the hilum is an effective method of treating soybean seeds. As in the previously described experiments, comparison is made between activity on GA-deficient soybean seedlings and normal (wild-type) seedlings. […] soybean seeds are supplied by Asgrow Seed Company (Des Moines, Iowa). Seed of GA-deficient transgenic soybean line 719 is created by transformation of […] soybean with pMON29801 (FMV/antisense CPScc). Fifth generation seed (R5) is used for these experiments. […] When multiple droplets are applied, each 1 μl droplet is allowed to dry before subsequent droplets are added. Ethanol minus compound is used a treatment control. […] (29° C.) and 75° F. (24° C.), respectively. Emergence timing is measured by counting the number of emerged seedlings at different times after planting. Emergence is defined as the presence of cotyledons raised to soil level or above. […] To assess the ability of a seed treatment to deliver biological activity beyond the first internode, measurements are taken on selected treatments after prolonged growth and development.

[6] = system: constitutively GA-deficient transgenic dwarf soybean line 719; assay: Experiment I greenhouse test, seed imbibition, GA-deficient soybean; assay type: in vivo, Glycine max; design: Observation on Transgenic Line 719: key: −1: treated plants are shorter as compared to untreated plants; 0: treated plants had the same stature as untreated plants; 1: treated plants are slightly elongated as compared to untreated plants; 2: treated plants are moderately elongated as compared to untreated plants; 3: treated plants are highly elongated as compared to untreated plants; 4: treated plants are extremely elongated as compared to untreated plants; settings: 0.25 mg/ml
Excerpt: Seeds are covered with 0.5″ of vermiculite.

wild-type A3237 soybean = assay: Hilum treatment of soybean seeds, seedling growth and development, wild-type soybean; assay type: in vivo, Glycine max; design: key to Emergence timing / Hypocotyl length (6 DAP) / 1st internode length (12 DAP) / 3rd internode length (20 DAP): pos: emergence faster/stem segment longer than controls; 0: emergence timing/stem segment length similar to controls; neg: emergence slower/stem segment shorter than controls
Method: as §2

[7] = L719, hilum treatment, rate response
[8] = L719, hilum treatment, single rate per compound 8.3-16.5 μg/seed
[9] = single rate per compound 8.3-16.5 μg/seed

Observation on Wild-Type Line A3237 [2] | Particulate material present, 100X Diln w/water ([3]; 0.25 mg/ml compound in water) | solubility in water during imbibition ([3]; 0.25 mg/ml treatment solutions) | Molecule | hypocotyl height of GA-deficient (Line 719) soybeans (FIG. 41) [1] | Rescue of GA-deficient soybeans [4] | Lowest rate where biological activity is observed, 1st internode length (10 DAP) [5, 7] [μg/seed] | Lowest rate where biological activity is observed, emergence timing [5, 7] [μg/seed] | Lowest rate where biological activity is observed, hypocotyl length (5 DAP) [5, 7] [μg/seed] | 1st internode length (12 DAP) [5, 8] | Emergence timing [5, 8] | Hypocotyl length (6 DAP) [5, 8] | activity on line 719 in terms of emergence timing and hypocotyl length ([5]; single rate, hilum, concentration that does not affect normal plant tissue) | effect in both the constitutive transgenic dwarf and wild-type soybean lines ([6]; imbibition, lines 719 and A3237) | Observation on Transgenic Line 719 ([6]; seeds imbibed 5 hours) | Lowest rate where biological activity is observed, 1st internode length (10 DAP) (wild-type A3237 soybean; rate response) [μg/seed] | Lowest rate where biological activity is observed, emergence timing (wild-type A3237 soybean; rate response) [μg/seed] | Lowest rate where biological activity is observed, hypocotyl length (5 DAP) (wild-type A3237 soybean; rate response) [μg/seed] | 1st internode length (12 DAP) (wild-type A3237 soybean; [9]) | Emergence timing (wild-type A3237 soybean; [9]) | Hypocotyl length (6 DAP) (wild-type A3237 soybean; [9])
– | – | – | GA15 | restored normal or greater hypocotyl height | – | – | – | – | – | – | – | – | – | – | – | – | – | – | – | –
– | – | – | C=C1C[C@]23C[C@H]1CC[C@H]2[C@]1(C=O)CCC[C@@](C)(C(=O)O)[C@H]1[C@@H]3C(=O)O [GA24] | restored normal or greater hypocotyl height | – | – | – | – | – | – | – | – | – | – | – | – | – | – | – | –
0 | YES | less soluble in water during imbibition | C=C1C[C@]23C[C@H]1CC[C@H]2[C@]1(C)CCC[C@@](C)(C(=O)O)[C@H]1[C@@H]3C=O [GA12-aldehyde] | – | 0 | >100 | 1 | 1 | 0 | pos | pos | biologically active | no substantial activity | 0 | >100 | >100 | >100 | 0 | 0 | 0
